Drawing on PubChem BioAssay (NCI), this text covers GI50 and TGI for six molecules.

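Values below derive from 48-hour exposures of cells grown in 96-well plates, with endpoints linearly interpolated between the two concentrations bracketing the appropriate inhibition level. GI50: concentration for 50% inhibition of growth. At the TGI there is no net growth.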

Test systems include HCC-2998 colon; SK-MEL-2 melanoma; DU-145 prostate; HT29 colon; HL-60(TB) leukemia; K-562 leukemia; NCI/ADR-RES ovarian; MDA-MB-231 breast; MALME-3M melanoma; MDA-MB-435.
Common to all, as to assay: DTP human tumour cell line panel, 48 h

For orientation: GI50 means the concentration that inhibits growth by half. By TGI is commonly meant the concentration giving total growth inhibition. Higher therefore signals lower sensitivity of the cells. As to `C[C@@H]1CC[C@H]2C(COC/C=C/COCC3=C(C(F)(F)F)O[C@@H]4O[C@@]5(C)CC[C@H]6[C@H](C)CC[C@@H]3[C@@]46OO5)=C(C(F)(F)F)O[C@@H]3O[C@@]4(C)CC[C@@H]1[C@]32OO4`, the GI50 is 0.472 µM in the test with HCC-2998 colon; 0.387 µM with SK-MEL-2 melanoma; 0.531 µM in the test with DU-145 prostate; 0.0169 µM in the test with HT29 colon; < 0.01 µM in the test on HL-60(TB) leukemia; < 0.0116 µM in the test with K-562 leukemia. Moreover, the GI50 was 3.14 µM in the test on NCI/ADR-RES ovarian, < 0.0416 µM in the test with MDA-MB-231 breast, < 0.01 µM in the test on MALME-3M melanoma and < 0.012 µM in the test with MDA-MB-435. In addition, the TGI is > 100 µM with HCC-2998 colon; > 100 µM with SK-MEL-2 melanoma; > 100 µM with DU-145 prostate; > 100 µM with HT29 colon; 0.0468 µM in the test on HL-60(TB) leukemia; > 47 µM with K-562 leukemia. Moreover, the total growth inhibition concentration (TGI) was > 71.3 µM in the test with NCI/ADR-RES ovarian, 0.865 µM with MDA-MB-231 breast and 0.0445 µM in the test with MALME-3M melanoma.
Consider `CC(C)(C)C1CCC2(CC1)CCN(CCCN1CCOCC1)CC2`, for which the TGI with HCC-2998 colon is 35.4 µM; in the test on SK-MEL-2 melanoma, 53.2 µM; with DU-145 prostate, > 100 µM; in the test with HT29 colon, > 34.2 µM; in the test with HL-60(TB) leukemia it was 41.8 µM; in the test on K-562 leukemia, 30.5 µM. Besides, the TGI in the test on NCI/ADR-RES ovarian was > 100 µM; in the test with MDA-MB-231 breast, > 100 µM; with MALME-3M melanoma, 39.4 µM; in the test with MDA-MB-435 it was > 100 µM.
Take `O=C1c2ccccc2C(=O)c2c(NCCNC(=O)C3CCCN3)ccc(NCCNC(=O)C3CCCN3)c21` (centres undefined): the TGI in the test with HCC-2998 colon was > 100 µM; in the test with SK-MEL-2 melanoma, > 100 µM; with DU-145 prostate it was > 100 µM; with HT29 colon, > 100 µM; in the test with HL-60(TB) leukemia it was > 100 µM; in the test with K-562 leukemia it was 52.2 µM. In addition, the TGI in the test with NCI/ADR-RES ovarian, in the test with MDA-MB-231 breast, in the test on MALME-3M melanoma and in the test with MDA-MB-435 was > 100 µM in each case.
On to `Cn1cnc([N+](=O)[O-])c1SCC(=O)O`, for which the TGI with HCC-2998 colon, in the test on SK-MEL-2 melanoma, in the test on DU-145 prostate, with HT29 colon, in the test with HL-60(TB) leukemia and in the test with K-562 leukemia was > 100 µM in each case. In addition, the TGI in the test on NCI/ADR-RES ovarian, with MDA-MB-231 breast, in the test on MALME-3M melanoma and with MDA-MB-435 was > 100 µM throughout.
As for `C[n+]1cccc(/C=C/c2ccc3cccc(O)c3n2)c1`, the TGI in the test with HCC-2998 colon is > 100 µM; with SK-MEL-2 melanoma, > 100 µM; in the test with DU-145 prostate, > 100 µM; with HT29 colon it was > 100 µM; in the test on HL-60(TB) leukemia, 82.3 µM; in the test on K-562 leukemia, > 100 µM. The TGI was > 100 µM in the test with NCI/ADR-RES ovarian, > 100 µM in the test on MDA-MB-231 breast, 93.5 µM with MALME-3M melanoma and > 100 µM in the test on MDA-MB-435.
Regarding `O=C(c1cc(Br)ccc1O)c1cc(Br)ccc1O`, the TGI with HCC-2998 colon was found to be 33.2 µM; in the test with SK-MEL-2 melanoma, 30.1 µM; with DU-145 prostate it was 29.2 µM; with HT29 colon, 31.7 µM; with HL-60(TB) leukemia, 44.1 µM; with K-562 leukemia, 33.5 µM. The total growth inhibition concentration (TGI) came to 44.7 µM with NCI/ADR-RES ovarian, 33.5 µM in the test on MDA-MB-231 breast, 31.6 µM in the test on MALME-3M melanoma and 29.3 µM in the test on MDA-MB-435.
